One test concerns R4A mouse autoantibody. The test can be described thus: competitive ELISA, R4A autoantibody binding to its antigens. To be noted: in vitro; for inhibition of R4A binding to DWEYS peptide: antigen DWEYS peptide, FIG. 1B; for inhibition of R4A binding to dsDNA: antigen dsDNA, FIG. 1C. The source says: (§1) FIG. 1A-1E. Compound 12W inhibits antigen recognition by systemic lupus erythematosus (SLE) autoantibodies. A) Structures of Compound 12W and WEY peptide (i.e., a tripeptide identical to the pentapeptide DWEYS (SEQ ID NO:1) less the carboxyl serine residue and the amino terminal aspartate of the pentapeptide). B) R4A mouse autoantibody binding to DWEYS (SEQ ID NO:1) peptide. C) R4A mouse autoantibody binding to DNA. D) G11 human autoantibody binding to DWEYS (SEQ ID NO:1) peptide. E) G11 human autoantibody binding to DNA. In B)-E), antibody binding in the presence of DWEYS peptide is shown in the right plot in each figure. Compound 12W inhibits binding as shown by the left plot in each figure.
Background: In an ELISA, binding on a coated surface is turned into a signal by an enzyme label.

For a further test, the system named is G11 human autoantibody. In words: competitive ELISA, G11 autoantibody binding to its antigens.
From the text: as §1

The next test concerns anti-BSA antibody. The test can be described thus: binding of an anti-BSA antibody to BSA (specificity control). To be noted: data not shown.
The subject of test [1] is R4A antibody. The test can be described thus: R4A binding to mouse kidney glomeruli in situ. The conditions noted are these: for inhibition of R4A binding to mouse kidney glomeruli: antibody pre-incubated, presence and absence of DNAse, FIG. 2A. The source says:
FIG. 2A-2B. Compound 12W inhibits SLE autoantibody binding to glomeruli in situ. A) Data with R4A. B) Data with G11. From left to right: control, +DNAse, +Compound 12W, +DNAse+Compound 12W.
The kidney is a major target organ in SLE, with renal disease occurring in approximately 50% of patients. Glomerular deposition of circulating autoantibodies leads to a cascade of inflammatory events including renal infiltration by activated immune cells, activation of dendritic cells through Toll-like receptors and pro-inflammatory cytokine production (Bagavant and Fu 2009), which can culminate in end-stage renal disease. […] The R4A and G11 antibodies, as well as other pathogenic lupus antibodies, bind to both DNA and non-DNA antigens present in kidney glomeruli ex vivo. […] To test if Compound 12W could block the binding of the R4A antibody to its renal antigens in situ, the R4A antibody was incubated with mouse kidney glomeruli in the presence and absence of Compound 12W and its binding measured by detection with fluorescently-conjugated secondary antibodies.

The next test concerns R4A or G11 antibodies. In words: neurotoxicity of intracerebrally injected lupus autoantibodies, TUNEL staining. The class given is in vivo, mice. How it is done: FIG. 3. Compound 12W inhibits neurotoxicity of autoantibodies. The lupus autoantibodies caused significant neuronal apoptosis, as indicated by positive TUNEL staining (right panels).
Both R4A and G11 cause excitotoxic death of neurons in the mouse hippocampus (Zhang et al. 2009). Therefore, the ability of Compound 12W to negate the neurotoxicity of these autoantibodies was assayed. To test the neuroprotective potential of Compound 12W, mice were injected intracerebrally with R4A or G11 antibodies in the presence and absence of Compound 12W. As shown previously, the lupus autoantibodies caused significant neuronal apoptosis, as indicated by positive TUNEL staining (FIG. 3, upper and lower right panels). […] The neuroprotective dose of Compound 12W was 2 logs less than that previously used to achieve similar neuroprotection with the DWEYS (SEQ ID NO:1) peptide (Huerta et al. 2006).

The test system of test [2] is autoantibodies present in serum from multiple lupus patients. In words: competitive ELISA, lupus patient sera binding to DWEYS peptide. The arrangement: species or system human. To be noted: sera pre-incubated, FIG. 4. How it is done:
FIG. 4. Compound 12W inhibits autoantibodies present in human SLE sera. Inhibition of human SLE sera binding to antigens in vitro.
(§2) The studies above tested the ability of Compound 12W to neutralize monoclonal antibodies derived from mouse or human lupus sera. It was next tested whether Compound 12W would be similarly effective in inhibiting the polyclonal autoreactivity present in lupus patient sera (FIG. 4). Sera from lupus patients were pre-incubated with the Compound 12W and binding to DWEYS (SEQ ID NO:1) and dsDNA was then assayed in a competitive ELISA. […] The ability of Compound 12W to inhibit binding of lupus sera to mouse kidney glomeruli was also assayed.

The subject of another test is human lupus sera. The test can be described thus: binding of lupus sera to mouse kidney glomeruli. The conditions noted are these: data not shown. Here is the method:
as §2

In test [3] the test system is anti-dsDNA/NMDAR G11/R4A/human lupus antibody. The test can be described thus: glomerular deposition of anti-dsDNA/NMDAR antibody in vivo. The arrangement: species or system SCID mice. How it is done:
In order to test if Compound 12W was also effective at protecting the kidney, a major target organ in lupus, from antibody deposition, the anti-dsDNA/NMDAR G11/R4A/human lupus antibody was administered to SCID mice in the absence and presence of Compound 12W and glomerular deposition was measured.

The test system of test [4] is R4A antibody. The conditions noted are these: literature; cited from earlier work.
The test system of test [5] is anti-dsDNA/NMDAR G11/R4A/human lupus antibody. The conditions noted are these: mice; Gaynor et al. 1997, Huerta et al. 2006; cited from earlier work.

Entries after “also recorded” stand apart in the source; their conditions may differ.

Regarding `CC(C)(C)NCC1CC2CCCCC2CN1CC(O)C(Cc1ccccc1)NCC(CCN)NCC1Nc2ccccc2CC1O` (centres unmarked) [Compound 12W, 2-((4-amino-1-(4-(3-((tert-butylamino)methyl)octahydroisoquinolin-2(1H)-yl)-3-hydroxy-1-phenylbutan-2-ylamino)butan-2-ylamino)methyl)-1,2,3,4-tetrahydroquinolin-3-ol], in the test on R4A mouse autoantibody, the “inhibition of R4A binding to DWEYS peptide” value is “able to inhibit R4A binding to these same antigens at nM concentrations” and the “inhibition of R4A binding to dsDNA” value is listed as “able to inhibit R4A binding to these same antigens at nM concentrations”. For the same molecule, in the test on G11 human autoantibody (antigen DNA, FIG. 1E), the “inhibition of G11 binding to DNA” value was “inhibited G11 binding at similar concentrations to its effect on R4A binding”. Besides, in the test on G11 human autoantibody (antigen DWEYS peptide, FIG. 1D), the “inhibition of G11 binding to DWEYS peptide” value is “inhibited G11 binding at similar concentrations to its effect on R4A binding”. For the same molecule, the “inhibition of binding of an anti-BSA antibody to BSA” value in the test on anti-BSA antibody is listed as “failed to inhibit binding”. The “inhibition of R4A binding to mouse kidney glomeruli” value in the test with R4A antibody [1] was “Dramatically less binding was observed to both DNA and non-DNA antigens”. The “dose dependence of inhibition of R4A binding to glomeruli” value in the test with R4A antibody [1] (data not shown) is recorded as “dependent on the dose”. In addition, the “neuroprotective dose relative to that previously used with the DWEYS peptide” value in the test on R4A or G11 antibodies (less than DWEYS peptide dose (Huerta et al. 2006)) amounted to 2 logs. In addition, in the test on R4A or G11 antibodies (mice, intracerebral co-administration with R4A or G11, FIG. 3), the “neuronal apoptosis caused by lupus autoantibodies (TUNEL staining)” value is “blocked the neurotoxic effects of the lupus antibodies”. Besides, the “inhibition of lupus patient sera binding to DWEYS peptide” value in [2] is “able to inhibit binding”. Besides, the “inhibition of binding of human lupus sera to mouse kidney glomeruli” value in the test on human lupus sera was “blocked binding of human lupus sera to kidney antigens”. In test [3], the “autoantibody binding to renal tissue in vivo” value was “blocked autoantibody binding to renal tissue both ex vivo and in vivo”.
On to “DWEYS peptide: pentapeptide DWEYS (SEQ ID NO:1), antigen/mimetope recognised by anti-dsDNA/NMDAR lupus autoantibodies (listed as Homo sapiens) [reference compound]”, for which, in the test on R4A mouse autoantibody, the “inhibition of R4A binding to DWEYS peptide” value is “inhibitable by DWEYS (SEQ ID NO:1) peptide at mM concentrations” and the “inhibition of R4A binding to dsDNA” value is on record as “inhibitable by DWEYS (SEQ ID NO:1) peptide at mM concentrations”. Further, in the test with R4A antibody [1], the “inhibition of R4A binding to mouse kidney glomeruli” value is “could be mimicked by pre-incubation of the R4A antibody with the DWEYS (SEQ ID NO:1) peptide at mM concentrations”. The “glomerular binding by R4A blocked (Gaynor et al 1997)” value in the test on R4A antibody [4] is “can be blocked”. For the same molecule, the “renal (and brain) deposition of anti-DNA/NMDAR antibodies in vivo, literature” value in test [5] was “blocks renal and brain deposition of anti-DNA/NMDAR antibodies in mice; also recorded: able to block binding of the anti-dsDNA antibodies to kidneys in vivo”.

Source of the values: patent US9096576B2, “Compounds and methods for treatment of systemic lupus erythematosus” (The Feinstein Institute For Medical Research, priority 2010, dated 2015).
